Values quoted from earlier work in paper PMC8537277 (Pharmaceuticals, 2021).

Biological target: HA receptor-binding site (RBS)
Design: method as in PMID 29610325
Settings: ref [20]; cited from earlier work

In the case of CC(=O)N[C@H]1[C@H]([C@H](O)[C@H](O)CO)OC(O)(C(=O)O)C[C@@H]1O (stereo partly shown) [sialic acid], the KD is listed as “mM range”.
